# Laboratory results reported in the supplement of paper PMC10307832.
# Compound: C=CC(=O)N1CCC[C@@H](n2nc(-c3ccc(Oc4ccccc4)cc3)c3c(N)ncnc32)C1 [Ibrutinib]
# Test: relative viability (nuclei count vs DMSO), 5 days (fraction); higher = more cells survive
# Method in brief: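 Lung cancer cell lines in 1536-well plates were exposed by pinning to five library-drug doses (not always all listed) √10 apart, following an overnight hold at 37 °C. MetaXpress counted Hoechst-stained nuclei from 4× images taken after 5 days without medium change. Viability is the median ratio of treated-well to vehicle-well nuclei across plates. Plates required control CV below 25% and at least one doubling.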
cell line,measurement,setting,value
SK-MES-1,relative viability,0.01581 µM,0.989
same,relative viability,0.05 µM,0.888
same,relative viability,0.1581 µM,1.02
same,relative viability,0.5 µM,0.543
